pEC50, pIC50: −log10 of the molar value.

Drawing on BindingDB's records for doi:10.1016/j.ejmech.2018.09.013 (Wuhan Institute of Technology, 2018), this text covers IC50 and EC50 for 16 compounds.

Target in one assay: not listed separately
Briefly: Inhibition of HIV1 reverse transcriptase K103N mutant infected in human MT4 cells assessed as protection against virus-induced cytopathic effect by MTT assay.
For orientation: pIC50 means −log10 of the IC50, conventionally taken in molar units. In the case of `N#Cc1ccc(Nc2cc(Cc3c(Cl)cccc3Cl)nc(N)n2)cc1`, the negative-log IC50 (pIC50) is 4.48.

In the case of `C#Cc1cnc(Nc2ccc(C#N)cc2)nc1Nc1c(C)cc(C)cc1C`, the pIC50 was 8.21.

Take `Cc1cnc(Nc2ccc(C#N)cc2)nc1Nc1c(C)cc(C#N)cc1C`: the pIC50 is 8.77.

Regarding `CC(=O)Nc1cnc(Nc2ccc(C#N)cc2)nc1Oc1c(C)cc(C#N)cc1C`, the pIC50 is 8.48.

Take `Cc1cc(C#N)cc(C)c1Nc1nc(Nc2ccc(C#N)cc2)ncc1C#N`: the pIC50 is 8.59.

On to `N#Cc1ccc(Nc2nc(N)cc(Cc3c(Cl)cccc3Cl)n2)cc1`, for which the pIC50 is 7.92.

Regarding `Cc1cc(C#N)cc(C)c1Nc1nc(Nc2ccc(C#N)cc2)ncc1Br`, the pIC50 is 9.40.

Target in a further assay: not listed separately
Description: Inhibition of HIV1 3B reverse transcriptase infected in human MT2 cells assessed as protection against virus-induced cytopathic effect by MTT assay. On the technique in general: Damage to the host cells serves as the signal in cytopathic effect assays.
Usually pEC50 stands for the negative decadic logarithm of the EC50, by convention in mol/L. On to `N#C/C=C/c1cc(F)c(Nc2nc(NCCCN3CCOCC3)nc(Nc3ccc(C#N)cc3)n2)c(F)c1`, for which the pEC50 is 8.24.

Target in a further assay: not listed separately
Briefly: Inhibition of HIV1 reverse transcriptase L100I/K103N double mutant infected in human MT4 cells assessed as protection against virus-induced cytopathic effect by MTT assay.
In the case of `C#Cc1cnc(Nc2ccc(C#N)cc2)nc1Nc1c(C)cc(C)cc1C`, the negative logarithm of the IC50 (pIC50) is 7.15.

Consider `Cc1cnc(Nc2ccc(C#N)cc2)nc1Nc1c(C)cc(C#N)cc1C`, for which the pIC50 was less than 5.00.

For `CC(=O)Nc1cnc(Nc2ccc(C#N)cc2)nc1Oc1c(C)cc(C#N)cc1C`, the negative-log IC50 (pIC50) is 6.69.

Turning to `Cc1cc(C#N)cc(C)c1Nc1nc(Nc2ccc(C#N)cc2)ncc1C#N`, the negative-log IC50 (pIC50) is 6.51.

As for `Cc1cc(C#N)cc(C)c1Nc1nc(Nc2ccc(C#N)cc2)ncc1Br`, the pIC50 is 7.43.

Target in the next assay: not listed separately
Description: Inhibition of CXCR4 tropic HIV1 UG070 reverse transcriptase infected in human TZM-bl cells.
Compound `Cc1cc(C)c(Nc2nc(N)nc(Nc3ccc(C#N)nc3)n2)c(C)c1` had a negative-log IC50 (pIC50) of 9.11.

`Cc1cc(C)c(Nc2nc(Cl)nc(Nc3ccc(C#N)nc3)n2)c(C)c1` showed a pIC50 of 8.95.

Target in another assay: not listed separately
Description: Inhibition of CCR5 tropic HIV1 ADA5 reverse transcriptase infected in human TZM-bl cells.
The compound `Cc1cc(C)c(Nc2nc(N)nc(Nc3ccc(C#N)nc3)n2)c(C)c1` had a pIC50 of 9.74.

`Cc1cc(C)c(Nc2nc(Cl)nc(Nc3ccc(C#N)nc3)n2)c(C)c1` had a pIC50 of 9.56.

Target in a further assay: not listed separately
Briefly: Inhibition of CCR5 tropic HIV1 VB59 reverse transcriptase infected in human TZM-bl cells.
On to `Cc1cc(C)c(Nc2nc(N)nc(Nc3ccc(C#N)nc3)n2)c(C)c1`, for which the pIC50 is 9.74.

Compound `Cc1cc(C)c(Nc2nc(Cl)nc(Nc3ccc(C#N)nc3)n2)c(C)c1` had a pIC50 of 9.30.

Target in the next assay: not listed separately
Description: Inhibition of wild-type HIV1 3B reverse transcriptase infected in human MT4 cells assessed as protection against virus-induced cytopathic effect measured after 4 days by MTT assay.
With `N#Cc1ccc(Nc2nccc(Oc3ccc4cc(C#N)ccc4c3Br)n2)cc1`, the pEC50 was 8.70.

For `N#Cc1ccc(Nc2nccc(Oc3ccc4ccccc4c3Br)n2)cc1`, the pEC50 is 8.62.

Target in the next assay: not listed separately
Briefly: Inhibition of HIV1 LAI reverse transcriptase infected in human MT4 cells assessed as protection against virus-induced cytopathic effect by MTT assay.
In the case of `Cc1cc(C)c(Nc2nc(Nc3ccc(C#N)cc3)ncc2-c2ccccc2)c(C)c1`, the negative logarithm of the IC50 (pIC50) is 7.62.

Regarding `N#Cc1ccc(Nc2cc(Cc3c(Cl)cccc3Cl)nc(N)n2)cc1`, the pIC50 was 8.00.

On to `Cc1cnc(Nc2ccc(C#N)cc2)nc1Nc1c(C)cc(C#N)cc1C`, for which the pIC50 is 9.10.

For `Cc1cc(C#N)cc(C)c1Nc1nc(Nc2ccc(C#N)cc2)ncc1C#N`, the negative logarithm of the IC50 (pIC50) was 9.30.

Consider `N#Cc1ccc(Nc2nc(N)cc(Cc3c(Cl)cccc3Cl)n2)cc1`, for which the pIC50 is 9.00.

As to `Cc1cc(C#N)cc(C)c1Nc1nc(Nc2ccc(C#N)cc2)ncc1Br`, the pIC50 was 9.40.

Target in another assay: not listed separately
Description: Inhibition of HIV1 reverse transcriptase Y188L mutant infected in human MT4 cells assessed as protection against virus-induced cytopathic effect by MTT assay.
On to `N#Cc1ccc(Nc2cc(Cc3c(Cl)cccc3Cl)nc(N)n2)cc1`, for which the pIC50 is less than 4.00.

With `Cc1cnc(Nc2ccc(C#N)cc2)nc1Nc1c(C)cc(C#N)cc1C`, the pIC50 was 7.80.

`Cc1cc(C#N)cc(C)c1Nc1nc(Nc2ccc(C#N)cc2)ncc1C#N`: the pIC50 was 8.07.

Take `N#Cc1ccc(Nc2nc(N)cc(Cc3c(Cl)cccc3Cl)n2)cc1`: the pIC50 is 7.15.

With `Cc1cc(C#N)cc(C)c1Nc1nc(Nc2ccc(C#N)cc2)ncc1Br`, the pIC50 was 8.48.

Target in the next assay: not listed separately
Briefly: Inhibition of HIV1 reverse transcriptase K103N/Y181C double mutant infected in human MT2 cells assessed as protection against virus-induced cytopathic effect by MTT assay.
For `N#C/C=C/c1cc(F)c(Nc2nc(NCCCN3CCOCC3)nc(Nc3ccc(C#N)cc3)n2)c(F)c1`, the pEC50 is 7.80.

On to `Cc1cc(/C=C/C#N)cc(C)c1Nc1nc(Nc2ccc(C#N)cc2)nc(OCCCN2CCOCC2)n1`, for which the pEC50 was 8.89.

Consider `Cc1cc(C)c(Nc2cc(OCCCN3CCOCC3)nc(Nc3ccc(C#N)cc3)n2)c(C)c1`, for which the pEC50 was 7.42.

Target in another assay: not listed separately
Description: Inhibition of wild-type HIV1 3B reverse transcriptase infected in human MT4 cells assessed as protection against virus-induced cytopathic effect measured 5 days post infection by MTT assay.
Regarding `Cc1cc(C#CCCO)cc(C)c1Oc1ccnc(Nc2ccc(C#N)cc2)n1`, the pEC50 is 8.52.

Target in a further assay: not listed separately
Briefly: Inhibition of HIV1 reverse transcriptase K103N/Y188C double mutant infected in human MT4 cells assessed as protection against virus-induced cytopathic effect measured after 4 days by MTT assay.
Regarding `N#Cc1ccc(Nc2nccc(Oc3ccc4cc(C#N)ccc4c3Br)n2)cc1`, the pEC50 was 6.62.

For `N#Cc1ccc(Nc2nccc(Oc3ccc4ccccc4c3Br)n2)cc1`, the pEC50 is 5.18.

Target in another assay: not listed separately
Description: Inhibition of HIV1 reverse transcriptase L100I mutant infected in human MT4 cells assessed as protection against virus-induced cytopathic effect by MTT assay.
For `N#Cc1ccc(Nc2cc(Cc3c(Cl)cccc3Cl)nc(N)n2)cc1`, the negative logarithm of the IC50 (pIC50) was 4.02.

Turning to `Cc1cnc(Nc2ccc(C#N)cc2)nc1Nc1c(C)cc(C#N)cc1C`, the pIC50 was 7.80.

In the case of `Cc1cc(C#N)cc(C)c1Nc1nc(Nc2ccc(C#N)cc2)ncc1C#N`, the pIC50 was 7.04.

On to `N#Cc1ccc(Nc2nc(N)cc(Cc3c(Cl)cccc3Cl)n2)cc1`, for which the pIC50 was 6.52.

For `Cc1cc(C#N)cc(C)c1Nc1nc(Nc2ccc(C#N)cc2)ncc1Br`, the pIC50 is 8.15.

Target in the next assay: not listed separately
Description: Inhibition of HIV1 reverse transcriptase Y181C mutant infected in human MT2 cells assessed as protection against virus-induced cytopathic effect by MTT assay.
Regarding `N#C/C=C/c1cc(F)c(Nc2nc(NCCCN3CCOCC3)nc(Nc3ccc(C#N)cc3)n2)c(F)c1`, the pEC50 is 7.12.

Regarding `Cc1cc(/C=C/C#N)cc(C)c1Nc1nc(Nc2ccc(C#N)cc2)nc(OCCCN2CCOCC2)n1`, the negative-log EC50 (pEC50) was 7.92.

`Cc1cc(C)c(Nc2cc(OCCCN3CCOCC3)nc(Nc3ccc(C#N)cc3)n2)c(C)c1`: the pEC50 is 6.32.

Target in the next assay: not listed separately
Description: Inhibition of HIV1 reverse transcriptase Y181C mutant infected in human MT4 cells assessed as protection against virus-induced cytopathic effect by MTT assay.
`N#Cc1ccc(Nc2cc(Cc3c(Cl)cccc3Cl)nc(N)n2)cc1`: the pIC50 was less than 4.00.

Turning to `Cc1cnc(Nc2ccc(C#N)cc2)nc1Nc1c(C)cc(C#N)cc1C`, the pIC50 is 7.92.

As to `Cc1cc(C#N)cc(C)c1Nc1nc(Nc2ccc(C#N)cc2)ncc1C#N`, the pIC50 is 7.12.

As for `N#Cc1ccc(Nc2nc(N)cc(Cc3c(Cl)cccc3Cl)n2)cc1`, the pIC50 was 6.76.

Consider `Cc1cc(C#N)cc(C)c1Nc1nc(Nc2ccc(C#N)cc2)ncc1Br`, for which the pIC50 was 8.02.

Another assay concerns the target Reverse transcriptase (Human immunodeficiency virus 1, UniProt Q9WKE8). Description: Inhibition of CXCR4 tropic HIV1 3B reverse transcriptase infected in human TZM-bl cells.
As for `Cc1cc(C)c(Nc2nc(N)nc(Nc3ccc(C#N)nc3)n2)c(C)c1`, the pIC50 was 9.88.

In turn, `Cc1cc(C)c(Nc2nc(Cl)nc(Nc3ccc(C#N)nc3)n2)c(C)c1` had a pIC50 of 9.91.

Target in a further assay: not listed separately
Briefly: Inhibition of HIV1 reverse transcriptase K103N/Y188C double mutant infected in human MT4 cells assessed as protection against virus-induced cytopathic effect by MTT assay.
As for `C#Cc1cnc(Nc2ccc(C#N)cc2)nc1Nc1c(C)cc(C)cc1C`, the pIC50 is 7.38.

Consider `Cc1cnc(Nc2ccc(C#N)cc2)nc1Nc1c(C)cc(C#N)cc1C`, for which the pIC50 was 6.79.

In the case of `CC(=O)Nc1cnc(Nc2ccc(C#N)cc2)nc1Oc1c(C)cc(C#N)cc1C`, the pIC50 is 7.52.

On to `Cc1cc(C#N)cc(C)c1Nc1nc(Nc2ccc(C#N)cc2)ncc1C#N`, for which the negative logarithm of the IC50 (pIC50) is 6.74.

On to `Cc1cc(C#N)cc(C)c1Nc1nc(Nc2ccc(C#N)cc2)ncc1Br`, for which the pIC50 is 7.49.
